In publication PMC6449043 (ACS chemical biology, 2018):

Target: ndSQR (sulfide quinone oxidoreductase in nanodiscs) (Homo sapiens, UniProt Q9Y6N5)
Assay: spectral titration of charge-transfer complex at […] nm
Type: binding

ndSQR (sulfide quinone oxidoreductase in nanodiscs), sequence (Q9Y6N5 42-450): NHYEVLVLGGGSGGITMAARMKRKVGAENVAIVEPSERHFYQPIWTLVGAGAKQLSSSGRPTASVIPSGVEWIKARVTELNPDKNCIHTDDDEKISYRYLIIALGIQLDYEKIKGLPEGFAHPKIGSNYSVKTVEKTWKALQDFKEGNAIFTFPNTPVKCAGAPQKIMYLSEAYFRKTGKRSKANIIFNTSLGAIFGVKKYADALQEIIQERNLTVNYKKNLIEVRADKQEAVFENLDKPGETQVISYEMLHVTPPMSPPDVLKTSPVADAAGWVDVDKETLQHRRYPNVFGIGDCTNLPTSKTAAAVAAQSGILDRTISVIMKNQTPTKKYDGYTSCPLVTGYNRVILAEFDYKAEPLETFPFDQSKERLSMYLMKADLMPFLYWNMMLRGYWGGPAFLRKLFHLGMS

CS [MeSH]
Kd: 38 ± 1 µM
